The values that follow come from patent publication US9617267B2, “Compounds and methods for kinase modulation, and indications therefor” (Plexxikon Inc., priority 2009, dated 2017).

Where two headings read alike, the source gives them in different places.

Broadly, the IC50 is the concentration at which inhibition is half-maximal.

For one series, the target named is CYP2C9 (Homo sapiens (Human), UniProt P11712). Description: CYP enzyme inhibition, fluorescent substrate (MFC). Here is the method:
(§1) CYP (Cytochrome P450) enzymes are the major drug metabolizing enzymes present in the liver. The inhibition of CYP enzyme activity (IC50) for each of CYP1A2, CYP2C19, CYP2C9, CYP2D6, CYP3A4(BFC) and CYP3A4(BQ) is determined for compounds, where inhibition of metabolism of a known substrate leads to a decrease in the fluorescence of the metabolized product. The fluorescence of the product is monitored as a function of compound concentration.
(§2) Compounds are dissolved in dimethyl sulfoxide to a concentration of 100 mM. These are diluted 1 μL into 82 μL of acetonitrile. […] These are then serially diluted 1:1 (160 μL to 160 μL co-factor mix) for a total of 10 points. A 10 μL aliquot of this final mixture is dispensed into 384 well assay plates and incubated for 10 minutes at 37° C. […] Assay plates are incubated at 37° C. […] The signal versus compound concentration is used to determine the IC50. The enzymes and substrates for this assay are obtained from BD Biosciences.

For the next series, the target named is CYP2D6 (Homo sapiens (Human), UniProt P10635). Put plainly: CYP enzyme inhibition, fluorescent substrate (AMMC). To be noted: read-out: Cyp IC50 2D6. The class given is in vitro ADME. Here is the method:
as §1
(§3) Compounds are dissolved in dimethyl sulfoxide to a concentration of 100 mM. These are diluted 1 μL into 82 μL of acetonitrile. An 11 μL aliquot of this solution is then added to 204 μL of cofactor mix (1.3% NADPH Regeneration system Solution A, 1.04% NADPH Regeneration system Solution B from BD Biosciences, 5% acetonitrile and 0.05% dimethyl sulfoxide). These are then serially diluted 1:1 (160 μL to 160 μL co-factor mix) for a total of 10 points. A 10 μL aliquot of this final mixture is dispensed into 384 well assay plates and incubated for 10 minutes at 37° C. Enzyme and substrate mix (10 μL; 0.5 pmol CYP1A2/5 μM CEC; 1.0 pmol CYP2C9/75 μM MFC; 0.5 pmol CYP2C19/25 μM CEC; 1.5 pmol CYP2D6/1.5 μM AMMC; 1.0 pmol CYP3A4/50 μM BFC; or 1.0 pmol CYP3A4/40 μM BQ) is added to these assay plates. Assay plates are incubated at 37° C. (CYP1A2-15 min; CYP2C9-45 min; CYP2C19, 2D6 and 3A4-30 min) and read in a Tecan Safire 2 plate reader (CYP1A2, 2C19 and 3A4 409 ex/460 em; CYP2C9 and 2D6 409 ex/530 em). The signal versus compound concentration is used to determine the IC50. The enzymes and substrates for this assay are obtained from BD Biosciences.

In another series the target is CYP1A2 (Homo sapiens (Human), UniProt P05177). Put plainly: CYP enzyme inhibition, fluorescent substrate (CEC). Here is the method: as §1, §3
CYP1A2, sequence (P05177 whole entry): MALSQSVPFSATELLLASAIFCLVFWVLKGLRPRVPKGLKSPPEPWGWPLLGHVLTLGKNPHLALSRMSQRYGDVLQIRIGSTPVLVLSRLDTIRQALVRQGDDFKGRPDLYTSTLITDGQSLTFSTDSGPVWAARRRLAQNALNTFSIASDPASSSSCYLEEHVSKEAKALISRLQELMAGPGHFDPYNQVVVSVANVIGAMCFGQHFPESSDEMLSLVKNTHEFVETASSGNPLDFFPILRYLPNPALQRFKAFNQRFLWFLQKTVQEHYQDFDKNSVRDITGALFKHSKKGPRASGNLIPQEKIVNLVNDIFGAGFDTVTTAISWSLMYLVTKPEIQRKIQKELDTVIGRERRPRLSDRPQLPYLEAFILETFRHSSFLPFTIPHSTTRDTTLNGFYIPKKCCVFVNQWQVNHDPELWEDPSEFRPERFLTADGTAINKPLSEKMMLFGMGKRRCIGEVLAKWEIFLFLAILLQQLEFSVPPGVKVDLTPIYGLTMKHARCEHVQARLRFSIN
The next series has as its target CYP2C19 (Homo sapiens (Human), UniProt P33261). Description: CYP enzyme inhibition, fluorescent substrate (CEC). The procedure:
as §1, §2

The nature of series [1]: Relative solubility by turbidity threshold concentration in aqueous buffers (pH 1.5, 4.5, 6.8, 7.4). To be noted: for turbidity threshold (L, M, H) 1.4: pH 1.4 [sic] (method: SGF pH 1.5); for turbidity threshold (L, M, H) 7.4: pH 7.4 (HEPES); for turbidity threshold (L, M, H) 4.5: pH 4.5 (SIF). The series is classed as physicochemical. Summed up:
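Solubility class (high >250 μM, moderate 31.3–250 μM, low <31.3 μM) comes from the concentration where absorbance reaches a 0.01 threshold, averaged across 490/535/650 nm. Samples were compound dilutions from DMSO stock, 1 μL into 99 μL buffer at pH 1.5, 4.5, 6.8 or 7.4.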

A further series addresses CYP3A4(BFC) (Homo sapiens (Human), UniProt P08684). Put plainly: CYP enzyme inhibition, fluorescent substrate BFC. To be noted: read-out: Cyp IC50 3A4(BFC); CYP3A4, substrate BFC. The procedure:
as §1, §2

The target in the next series is B-Raf V600E (Homo sapiens (Human), UniProt P15056, V600E). Put plainly: B-Raf V600E kinase activity biochemical assay (AlphaScreen, biotin-MEK1 phosphorylation). To be noted: for IC50: B-Raf V600E; for Biochemical activity ratio V600E/C: ratio of IC50 B-Raf V600E / c-Raf-1. Here is the method:
(§4) Compounds to be tested are diluted in dimethyl sulfoxide to a concentration of 0.1 mM. These are serially diluted 15 μL into 30 μL of dimethyl sulfoxide seven times in 96 well plates for a total of 8 dilution points, and for each dilution point 1 μL is added to a well of an assay plate. […] The reaction is started with addition of 10 μL of 200 μM ATP (i.e. final 100 μM ATP). After incubation of the kinase reaction for 45 minutes at room temperature, 5 μL/well of Stop Solution is added (25 mM Hepes pH 7.5, 100 mM EDTA, 0.01% BSA with donor beads (Streptavidin coated beads, Perkin Elmer), acceptor beads (Protein A coated, Perkin Elmer), and anti phosphor MEK1/2 antibody (CellSignal), each at final concentration 10 μg/mL). The plates are incubated for 3 hours at room temperature and read on Envision reader (Perkin Elmer). […] The signal vs. compound concentration is used to determine the IC50.

Series [2] deals with B-Raf. Description: B-Raf kinase activity biochemical assay (AlphaScreen, biotin-MEK1 phosphorylation). To be noted: for Biochemical activity ratio B/V600E: ratio of IC50 B-Raf / B-Raf V600E; for Biochemical activity ratio B/C: ratio of IC50 B-Raf / c-Raf-1. Here is the method: as §4
On the technique in general: In Alpha technology, singlet oxygen from a donor bead excites a nearby acceptor bead.

Series [3] concerns the target B-Raf (Homo sapiens (Human), UniProt P15056). The description is as above. To be noted: B-Raf. Here is the method:
as §4

In the next series the target is c-Raf-1 (Homo sapiens, UniProt P04049). Put plainly: c-Raf-1 kinase activity biochemical assay (AlphaScreen, biotin-MEK1 phosphorylation). The procedure: as §4
c-Raf-1, sequence (P04049 whole entry, looked up): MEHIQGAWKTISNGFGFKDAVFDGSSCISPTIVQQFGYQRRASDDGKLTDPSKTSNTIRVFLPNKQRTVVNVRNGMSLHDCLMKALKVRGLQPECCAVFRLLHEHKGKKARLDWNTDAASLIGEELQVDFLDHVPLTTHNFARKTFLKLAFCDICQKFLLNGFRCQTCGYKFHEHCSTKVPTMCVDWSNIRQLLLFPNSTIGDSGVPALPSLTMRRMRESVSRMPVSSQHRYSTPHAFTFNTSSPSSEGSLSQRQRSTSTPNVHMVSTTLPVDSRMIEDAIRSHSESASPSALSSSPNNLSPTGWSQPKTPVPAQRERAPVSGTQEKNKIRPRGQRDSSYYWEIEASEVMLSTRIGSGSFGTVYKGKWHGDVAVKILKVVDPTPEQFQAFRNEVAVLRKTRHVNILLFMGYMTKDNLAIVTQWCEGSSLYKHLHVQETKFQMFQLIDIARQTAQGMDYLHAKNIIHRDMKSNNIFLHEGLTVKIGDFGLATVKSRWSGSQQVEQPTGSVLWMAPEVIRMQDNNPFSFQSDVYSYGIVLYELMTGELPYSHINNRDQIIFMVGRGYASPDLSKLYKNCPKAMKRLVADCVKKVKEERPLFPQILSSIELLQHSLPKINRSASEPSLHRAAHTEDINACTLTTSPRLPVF
Where [4] appears, read: read-out: Cyp IC50 1A2, CYP1A2, substrate CEC.
[5] abbreviates: read-out: Cyp IC50 2C9, CYP2C9, substrate MFC.

CYP2C9, sequence (P11712 whole entry): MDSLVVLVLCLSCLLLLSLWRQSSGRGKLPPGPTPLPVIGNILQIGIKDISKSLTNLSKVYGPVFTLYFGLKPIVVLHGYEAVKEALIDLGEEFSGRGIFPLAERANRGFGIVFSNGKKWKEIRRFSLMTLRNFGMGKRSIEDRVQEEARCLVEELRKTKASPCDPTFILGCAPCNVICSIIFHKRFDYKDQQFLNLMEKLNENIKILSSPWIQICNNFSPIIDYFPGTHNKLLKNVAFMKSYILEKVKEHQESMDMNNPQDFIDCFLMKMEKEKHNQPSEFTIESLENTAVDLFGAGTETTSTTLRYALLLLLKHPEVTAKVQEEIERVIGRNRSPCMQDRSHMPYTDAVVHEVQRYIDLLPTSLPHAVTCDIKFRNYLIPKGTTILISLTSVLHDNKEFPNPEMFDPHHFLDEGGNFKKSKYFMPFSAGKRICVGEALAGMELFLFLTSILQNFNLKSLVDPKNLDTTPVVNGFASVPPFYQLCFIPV
B-Raf (Homo sapiens (Human), UniProt P15056), sequence (P15056 whole entry): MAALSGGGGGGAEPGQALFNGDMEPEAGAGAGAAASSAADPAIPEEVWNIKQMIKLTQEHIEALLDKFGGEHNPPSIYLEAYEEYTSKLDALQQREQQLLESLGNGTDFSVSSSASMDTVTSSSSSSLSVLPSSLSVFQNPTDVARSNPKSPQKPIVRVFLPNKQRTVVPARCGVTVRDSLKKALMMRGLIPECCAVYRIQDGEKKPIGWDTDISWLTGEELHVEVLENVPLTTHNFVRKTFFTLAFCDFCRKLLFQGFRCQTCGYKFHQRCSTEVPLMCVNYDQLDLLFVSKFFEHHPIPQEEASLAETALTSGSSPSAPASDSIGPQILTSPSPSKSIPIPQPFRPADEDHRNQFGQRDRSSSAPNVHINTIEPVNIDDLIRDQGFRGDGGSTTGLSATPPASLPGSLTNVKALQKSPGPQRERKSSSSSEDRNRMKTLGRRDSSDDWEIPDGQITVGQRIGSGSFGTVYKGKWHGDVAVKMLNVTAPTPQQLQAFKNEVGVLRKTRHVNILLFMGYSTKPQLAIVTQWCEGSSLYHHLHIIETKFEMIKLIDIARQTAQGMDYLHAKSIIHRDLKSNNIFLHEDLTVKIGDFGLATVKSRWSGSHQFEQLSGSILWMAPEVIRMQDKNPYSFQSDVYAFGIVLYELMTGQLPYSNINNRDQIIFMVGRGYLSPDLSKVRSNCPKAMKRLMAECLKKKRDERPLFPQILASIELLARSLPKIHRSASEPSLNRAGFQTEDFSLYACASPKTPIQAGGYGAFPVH
B-Raf V600E, sequence (P15056 whole entry V600E): as the sequence (P15056 whole entry) above, with V600E counted along it
CYP2D6, sequence (P10635 whole entry): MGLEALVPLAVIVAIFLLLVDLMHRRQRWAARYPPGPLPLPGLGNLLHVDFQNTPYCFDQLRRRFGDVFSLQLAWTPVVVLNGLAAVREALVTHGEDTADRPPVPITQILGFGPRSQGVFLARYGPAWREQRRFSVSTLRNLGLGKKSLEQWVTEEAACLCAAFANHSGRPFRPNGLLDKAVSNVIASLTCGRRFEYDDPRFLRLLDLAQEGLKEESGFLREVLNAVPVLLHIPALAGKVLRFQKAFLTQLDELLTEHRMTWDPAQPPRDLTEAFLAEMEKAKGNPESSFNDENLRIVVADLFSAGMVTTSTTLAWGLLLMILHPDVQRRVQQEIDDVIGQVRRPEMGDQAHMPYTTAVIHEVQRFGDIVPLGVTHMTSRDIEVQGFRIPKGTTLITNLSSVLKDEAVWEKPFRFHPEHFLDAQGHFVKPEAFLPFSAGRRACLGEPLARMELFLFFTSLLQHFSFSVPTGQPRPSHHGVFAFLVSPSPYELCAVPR
CYP2C19, sequence (P33261 whole entry): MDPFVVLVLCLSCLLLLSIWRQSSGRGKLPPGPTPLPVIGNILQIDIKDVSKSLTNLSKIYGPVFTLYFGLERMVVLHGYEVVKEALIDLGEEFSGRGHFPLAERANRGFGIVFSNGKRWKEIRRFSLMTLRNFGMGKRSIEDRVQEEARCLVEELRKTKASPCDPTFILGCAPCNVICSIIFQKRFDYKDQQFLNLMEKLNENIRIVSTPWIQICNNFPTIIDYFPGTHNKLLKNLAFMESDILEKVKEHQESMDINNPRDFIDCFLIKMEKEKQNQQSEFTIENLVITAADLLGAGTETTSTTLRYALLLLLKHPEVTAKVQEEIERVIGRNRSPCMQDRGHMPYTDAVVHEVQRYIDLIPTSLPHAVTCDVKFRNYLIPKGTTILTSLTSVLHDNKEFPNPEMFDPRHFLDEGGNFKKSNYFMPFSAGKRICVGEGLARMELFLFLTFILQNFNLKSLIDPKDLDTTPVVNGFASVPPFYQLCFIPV
CYP3A4(BFC), sequence (P08684 whole entry): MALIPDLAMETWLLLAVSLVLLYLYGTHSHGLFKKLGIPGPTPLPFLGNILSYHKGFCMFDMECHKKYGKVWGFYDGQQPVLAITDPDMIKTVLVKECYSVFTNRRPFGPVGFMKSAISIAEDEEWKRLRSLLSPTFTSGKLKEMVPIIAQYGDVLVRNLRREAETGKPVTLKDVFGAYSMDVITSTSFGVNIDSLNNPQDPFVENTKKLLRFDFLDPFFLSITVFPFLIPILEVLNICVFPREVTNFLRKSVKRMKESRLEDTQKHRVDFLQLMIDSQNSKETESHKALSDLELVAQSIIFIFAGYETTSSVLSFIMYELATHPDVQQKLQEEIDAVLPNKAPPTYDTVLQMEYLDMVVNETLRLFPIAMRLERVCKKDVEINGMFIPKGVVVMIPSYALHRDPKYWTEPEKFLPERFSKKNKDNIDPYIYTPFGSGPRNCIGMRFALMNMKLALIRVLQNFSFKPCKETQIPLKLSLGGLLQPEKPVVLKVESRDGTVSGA

Take `CC(C)c1ncnc2[nH]cc(C(=O)c3c(F)ccc(NS(=O)(=O)c4ccc(C(F)(F)F)cc4)c3F)c12` [P-1029, N-[2,4-Difluoro-3-(4-isopropyl-7H-pyrrolo[2,3-d]pyrimidine-5-carbonyl)-phenyl]-4-trifluoromethyl-benzenesulfonamide]: the IC50 at CYP2C9 is 5 to 10 µM; at CYP2D6, greater than 10 µM; at CYP1A2 (setting [4]) it was greater than 10 µM; against CYP2C19, 5 to 10 µM; on CYP3A4(BFC) it was greater than 10 µM; against B-Raf V600E it was greater than 0.1 µM. Also, the IC50 against B-Raf [3] and on c-Raf-1 was less than 0.1 µM throughout. Also, the “turbidity threshold (L, M, H) 1.4” value in [1] was “M (moderate solubility if the threshold concentration is 31.3 μM to 250 μM)”. For the same compound, the “turbidity threshold (L, M, H) 7.4” value in series [1] was “M (moderate solubility if the threshold concentration is 31.3 μM to 250 μM)”. The “Biochemical activity ratio V600E/C” value on B-Raf V600E is greater than 10. Further, the “Biochemical activity ratio B/V600E” value in the series on B-Raf [2] was 0.1-10. The “Biochemical activity ratio B/C” value in the series on B-Raf [2] is listed as greater than 10.

Take `CCCNc1ncnc2[nH]cc(C(=O)c3c(F)ccc(NS(=O)(=O)c4ccc(C(F)(F)F)cc4)c3F)c12` [P-1032, N-[2,4-Difluoro-3-(4-propylamino-7H-pyrrolo[2,3-d]pyrimidine-5-carbonyl)-phenyl]-4-trifluoromethyl-benzenesulfonamide]: the concentration for half-maximal inhibition (IC50) at CYP2C9 (setting [5]) was greater than 10 µM; at CYP2D6 it was greater than 10 µM; on CYP1A2 (setting [4]), greater than 10 µM; at CYP2C19, 5 to 10 µM; on CYP3A4(BFC), greater than 10 µM; on B-Raf V600E it was less than 0.1 µM. The concentration for half-maximal inhibition (IC50) at B-Raf [3] and on c-Raf-1 was less than 0.1 µM in each case. Also, the “turbidity threshold (L, M, H) 1.4” value in series [1] is recorded as “L (low solubility if the threshold concentration is <31.3 μM)”. Further, in [1], the “turbidity threshold (L, M, H) 4.5” value is reported as “L (low solubility if the threshold concentration is <31.3 μM)”. The “Biochemical activity ratio V600E/C” value at B-Raf V600E is recorded as greater than 10. Moreover, in the series on B-Raf [2], the “Biochemical activity ratio B/V600E” value is 0.1-10. Moreover, the “Biochemical activity ratio B/C” value in the series on B-Raf [2] is recorded as greater than 10.

For the compound `CCCS(=O)(=O)Nc1ccc(F)c(C(=O)c2c[nH]c3ncnc(Cl)c23)c1F` [P-1033, Propane-1-sulfonic acid [3-(4-chloro-7H-pyrrolo[2,3-d]pyrimidine-5-carbonyl)-2,4-difluoro-phenyl]-amide], the IC50 on CYP2C9 (setting [5]) was greater than 10 µM; at CYP2D6, greater than 10 µM; on CYP1A2 (human, 15 min) it was greater than 10 µM; on CYP2C19 (read-out: Cyp IC50 2C19, CYP2C19, substrate CEC), greater than 10 µM; on CYP3A4(BFC) it was greater than 10 µM; against B-Raf V600E it was less than 0.1 µM. The half-inhibitory concentration (IC50) against B-Raf [3] is greater than 0.1 µM; against c-Raf-1 it was less than 0.1 µM. Also, the “turbidity threshold (L, M, H) 1.4” value in series [1] is on record as “H (high solubility if the threshold concentration is >250 μm)”. Also, the “turbidity threshold (L, M, H) 4.5” value in series [1] was “H (high solubility if the threshold concentration is >250 μm)”. Further, the “turbidity threshold (L, M, H) 6.8” value in [1] (pH 6.8 (SIF)) is recorded as “H (high solubility if the threshold concentration is >250 μm)”. Moreover, the “turbidity threshold (L, M, H) 7.4” value in series [1] is listed as “H (high solubility if the threshold concentration is >250 μm)”. Moreover, at B-Raf V600E, the “Biochemical activity ratio V600E/C” value is recorded as 0.1-10. Besides, the “Biochemical activity ratio B/V600E” value in the series on B-Raf [2] is listed as 0.1-10. For the same compound, the “Biochemical activity ratio B/C” value in the series on B-Raf [2] is listed as greater than 10.
